{"source": "patent EP2292225A1", "about": "(priority 1997, dated 1998)", "system": "Pig femoral arteries", "assay": "Biological stenting of balloon traumatized femoral arteries (luminal area morphometry)", "type": "in vivo", "experimental": "Pig femoral arteries were traumatized as described in Example 7, and then treated with cytochalasin B. About 1.5 to about 2 ml of cytochalasin B at 0.1 µg/ml was infused into portions of the artery that had been separated from other portions by ligatures. The artery was then pressurized for 3 minutes and the fluid aspirated. Approximately 8 to about 30 lambda of the solution is retained in the interstitial space surrounding the cells in the tunica media. Ten femoral arteries (two arteries obtained from each of the 5 pigs that were treated according to the single dose protocol described in Example 7) were then evaluated histologically at 4 days or 3 weeks after cytochalasin B adminstration. The maximal luminal area of each artery was measured and calculated from digitized microscopic images by a BQ System IV computerized morphometric analysis system (R & M Biometrics, Inc., Nashville, TN). This experiment was repeated with 5 additional pigs (two arteries per pig; cytochalasin B dose = 0.1 µg/ml, applied for 3 minutes at 1 atm pressure; same time points). The data obtained from the two experiments were combined.\nThe luminal area of the traumatized and cytochalasin B-treated segments of the arteries were also compared to the luminal area of the normal, untreated region of the femoral artery proximal to the test area.\nA cytochalasin B dose response study was then conducted on 10 pigs, following the experimental protocol described in Example 7. Briefly, both femoral arteries in each of 2 pigs were treated with one of the following doses of cytochalasin B: 0.0 µg/ml (i.e., PBS negative control); 0.01 µg/ml; 0.10 µg/ml; 1.0 µg/ml; and 10.0 µg/ml as described above. The agent was delivered by intraluminal catheter at 1 atm pressure for 3 minutes, and the arteries were evaluated 3 weeks later by the morphometric analysis system described above. The ratio of treated artery luminal area to proximal normal artery luminal area was determined as a percent change in treated vs. normal area, or the artery lumen size (diameter or cross sectional area) of treated arteries relative to traumatized but untreated arteries.\nBalloon traumatized swine femoral arteries from control and treated (0.1 µg/ml cytochalasin B) were evaluated at 1, 4, 7, 14, or 21 days after intervention. […] A two way analysis of variance indicated a statistically significant difference (p<.05) in the artery lumen areas over three weeks between the cytochalasin B treated and diluent control groups."}
{"compound": "C=C1[C@@H](C)[C@H]2[C@H](Cc3ccccc3)NC(=O)[C@]23OC(=O)/C=C/[C@H](O)CCC[C@@H](C)C/C=C/[C@H]3[C@@H]1O", "note": "[cytochalasin B]", "values": [{"measurement": "percent change in treated vs. normal luminal area", "setting": "0.1 µg/ml, 1 atm for 3 minutes, 3 weeks later", "result": "~140", "unit": "%"}, {"measurement": "artery lumen area over three weeks", "setting": "0.1 µg/ml, 1, 4, 7, 14, or 21 days after intervention", "result": "sustained dilation which changed very little between days 7 and 21"}, {"measurement": "luminal area compared to other test agents or controls", "setting": "0.1 µg/ml, 4 day and 3 week post-treatment", "result": "larger luminal area"}, {"measurement": "toxicity", "setting": "at 10 µg/ml", "result": "no evidence of toxicity"}, {"measurement": "threshold level of the therapeutic effect", "setting": "no effect below this dose", "result": 0.1, "unit": "µg/mL"}, {"measurement": "lumen area in the test region compared to the normal control segment of the same artery", "setting": "pig, in vivo", "result": "approximately two times as large"}]}
